How the values were obtained:
Type in all cases: cell-based
human TLR9 = human TLR9 (Homo sapiens (Human), UniProt Q9NR96); assay: TLR9 inhibition reporter assay (HEK-Blue, SEAP); details: HEK-Blue cells overexpressing human TLR9, ODN2006 5 nM stimulation
Outline: (§1)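 Percent inhibition of agonist-induced SEAP secretion was scored against DMSO-only and reference-inhibitor controls. Stimulation lasted 22 h at 37 °C following 30 min compound pre-exposure (0.05 nM–50 μM); ligands were gardiquimod 7.5 μM, R848 15.9 μM and ODN2006 5 nM for TLR7, 8 and 9.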

human TLR8 = human TLR8 (Homo sapiens (Human), UniProt Q9NR97); assay: TLR8 inhibition reporter assay (HEK-Blue, SEAP); details: HEK-Blue cells overexpressing human TLR8, R848 15.9 μM stimulation
Outline: as §1

human TLR7 = human TLR7 (Homo sapiens (Human), UniProt Q9NYK1); assay: TLR7 inhibition reporter assay (HEK-Blue, SEAP); details: HEK-Blue cells overexpressing human TLR7, gardiquimod 7.5 μM stimulation
Outline: as §1

Chain of human TLR8 (Q9NR97 27-1041): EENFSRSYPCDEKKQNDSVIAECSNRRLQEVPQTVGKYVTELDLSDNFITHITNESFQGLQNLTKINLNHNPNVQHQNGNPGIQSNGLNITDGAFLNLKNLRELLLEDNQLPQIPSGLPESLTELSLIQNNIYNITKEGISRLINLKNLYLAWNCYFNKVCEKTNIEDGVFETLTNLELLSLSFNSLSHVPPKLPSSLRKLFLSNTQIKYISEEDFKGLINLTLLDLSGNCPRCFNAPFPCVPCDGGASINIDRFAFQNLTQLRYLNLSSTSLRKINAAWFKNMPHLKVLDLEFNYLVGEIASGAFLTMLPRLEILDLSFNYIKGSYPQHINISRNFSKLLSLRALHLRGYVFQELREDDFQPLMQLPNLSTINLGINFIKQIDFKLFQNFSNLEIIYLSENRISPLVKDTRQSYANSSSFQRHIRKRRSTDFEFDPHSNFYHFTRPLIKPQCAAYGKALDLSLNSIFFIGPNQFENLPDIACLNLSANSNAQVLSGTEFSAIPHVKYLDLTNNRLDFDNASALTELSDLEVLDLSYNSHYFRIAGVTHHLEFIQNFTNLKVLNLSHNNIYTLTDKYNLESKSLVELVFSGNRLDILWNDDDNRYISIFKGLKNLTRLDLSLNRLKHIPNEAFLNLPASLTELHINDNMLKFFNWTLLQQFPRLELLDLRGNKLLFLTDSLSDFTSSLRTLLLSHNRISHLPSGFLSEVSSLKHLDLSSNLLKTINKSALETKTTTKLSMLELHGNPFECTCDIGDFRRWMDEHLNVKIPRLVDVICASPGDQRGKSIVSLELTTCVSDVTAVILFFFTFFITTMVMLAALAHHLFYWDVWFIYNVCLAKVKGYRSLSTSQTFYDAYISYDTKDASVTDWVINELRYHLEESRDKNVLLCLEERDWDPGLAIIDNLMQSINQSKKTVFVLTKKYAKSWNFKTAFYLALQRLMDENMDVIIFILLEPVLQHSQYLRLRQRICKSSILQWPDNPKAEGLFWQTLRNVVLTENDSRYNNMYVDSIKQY
Chain of human TLR9 (Q9NR96 26-1032): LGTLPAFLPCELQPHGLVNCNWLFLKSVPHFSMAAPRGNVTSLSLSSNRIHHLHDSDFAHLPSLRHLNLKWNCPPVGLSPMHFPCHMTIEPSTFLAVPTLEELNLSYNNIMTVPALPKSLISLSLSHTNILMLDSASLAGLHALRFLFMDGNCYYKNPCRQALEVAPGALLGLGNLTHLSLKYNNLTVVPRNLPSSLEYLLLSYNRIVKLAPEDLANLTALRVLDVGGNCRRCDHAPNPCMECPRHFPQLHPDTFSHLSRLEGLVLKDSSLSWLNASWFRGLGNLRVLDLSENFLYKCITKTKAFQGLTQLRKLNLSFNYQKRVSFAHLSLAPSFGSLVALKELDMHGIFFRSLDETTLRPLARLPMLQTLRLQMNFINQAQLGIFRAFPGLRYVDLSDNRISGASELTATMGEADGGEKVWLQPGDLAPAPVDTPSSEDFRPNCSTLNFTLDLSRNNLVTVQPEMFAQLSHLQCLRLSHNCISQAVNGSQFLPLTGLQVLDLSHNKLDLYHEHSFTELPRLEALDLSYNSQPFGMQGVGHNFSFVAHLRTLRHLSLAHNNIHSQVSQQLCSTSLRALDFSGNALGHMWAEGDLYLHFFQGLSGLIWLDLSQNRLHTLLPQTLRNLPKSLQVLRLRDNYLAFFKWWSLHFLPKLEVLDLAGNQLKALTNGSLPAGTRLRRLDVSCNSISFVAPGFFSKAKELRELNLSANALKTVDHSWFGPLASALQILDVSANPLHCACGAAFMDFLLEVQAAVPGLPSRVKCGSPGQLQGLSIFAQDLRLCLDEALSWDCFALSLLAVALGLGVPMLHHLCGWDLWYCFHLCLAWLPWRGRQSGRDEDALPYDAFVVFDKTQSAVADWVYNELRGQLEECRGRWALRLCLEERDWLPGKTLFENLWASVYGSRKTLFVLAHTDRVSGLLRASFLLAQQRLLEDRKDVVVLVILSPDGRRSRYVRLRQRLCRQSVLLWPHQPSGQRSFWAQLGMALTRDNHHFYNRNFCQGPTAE
Chain of human TLR7 (Q9NYK1 27-1049): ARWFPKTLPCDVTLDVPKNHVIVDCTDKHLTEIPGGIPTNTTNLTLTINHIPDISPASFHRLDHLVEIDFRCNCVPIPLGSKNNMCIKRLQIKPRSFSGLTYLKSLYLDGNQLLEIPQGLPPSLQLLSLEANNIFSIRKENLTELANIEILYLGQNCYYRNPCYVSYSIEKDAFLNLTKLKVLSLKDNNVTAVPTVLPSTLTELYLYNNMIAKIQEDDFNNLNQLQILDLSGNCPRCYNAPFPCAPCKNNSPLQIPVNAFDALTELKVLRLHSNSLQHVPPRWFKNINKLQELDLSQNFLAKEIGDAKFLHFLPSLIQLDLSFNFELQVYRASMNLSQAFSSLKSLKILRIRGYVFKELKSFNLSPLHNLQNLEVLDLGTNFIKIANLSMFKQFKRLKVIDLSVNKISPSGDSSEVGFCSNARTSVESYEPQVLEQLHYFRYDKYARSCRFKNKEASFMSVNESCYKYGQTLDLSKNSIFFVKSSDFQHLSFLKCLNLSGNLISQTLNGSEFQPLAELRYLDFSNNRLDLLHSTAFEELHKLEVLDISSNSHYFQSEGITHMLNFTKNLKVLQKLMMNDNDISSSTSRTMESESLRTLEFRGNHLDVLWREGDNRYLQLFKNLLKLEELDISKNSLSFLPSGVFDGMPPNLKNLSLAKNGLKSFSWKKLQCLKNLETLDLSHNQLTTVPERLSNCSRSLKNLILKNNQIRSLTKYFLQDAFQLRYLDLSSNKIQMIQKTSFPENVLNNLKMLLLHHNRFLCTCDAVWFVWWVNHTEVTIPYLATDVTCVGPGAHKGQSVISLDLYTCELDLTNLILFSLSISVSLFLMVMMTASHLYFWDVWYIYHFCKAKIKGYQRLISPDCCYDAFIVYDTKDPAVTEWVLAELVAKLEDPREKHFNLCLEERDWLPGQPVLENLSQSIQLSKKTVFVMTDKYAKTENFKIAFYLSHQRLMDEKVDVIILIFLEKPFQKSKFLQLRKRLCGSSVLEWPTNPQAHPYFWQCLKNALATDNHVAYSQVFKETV

| Compound | IC50 (human TLR9) [nM] | IC50 (human TLR8) [nM] | IC50 (human TLR7) [nM] |
| --- | --- | --- | --- |
| CNCC(=O)N1CCc2cc(-c3ccc4[nH]c(-c5ccnc(C)c5)c(C(C)C)c4c3)sc2C1 [Example 252, 1-(2-(3-isopropyl-2-(2-methylpyridin-4-yl)-1H-indol-5-yl)-4,7-dihydrothieno[2,3-c]pyridin-6(5H)-yl)-2-(methylamino)ethan-1-one] | 788 | 12 | 22 |
| Cc1cc(-c2[nH]c3ccc(-c4cc5c(s4)CN(C(=O)CN(C)C)CC5)cc3c2C(C)C)ccn1 [Example 305, 2-(dimethylamino)-1-(2-(3-isopropyl-2-(2-methylpyridin-4-yl)-1H-indol-5-yl)-4,7-dihydrothieno[2,3-c]pyridin-6(5H)-yl)ethan-1-one] | 4110 | 13 | 21 |
| CCc1c(-c2ccnc(C)c2)[nH]c2ccc(-c3noc(CN(C)C)n3)cc12 [Example 453, 1-(3-(3-ethyl-2-(2-methylpyridin-4-yl)-1H-indol-5-yl)-1,2,4-oxadiazol-5-yl)-N,N-dimethylmethanamine] | 23200 | 32 | 703 |
| Cc1cc(-c2[nH]c3ccc(-c4ccc(N)nc4)cc3c2C(C)C)cc(C)n1 [Example 236, 5-(2-(2,6-dimethylpyridin-4-yl)-3-isopropyl-1H-indol-5-yl)pyridin-2-amine] | 655 | 2.7 | 13 |
| Cc1cc(-c2[nH]c3ccc(-c4ccc(N)nc4)cc3c2C(C)C)ccn1 [Example 237, 5-(3-isopropyl-2-(2-methylpyridin-4-yl)-1H-indol-5-yl)pyridin-2-amine] | 9730 | 2 | 30 |
| Cc1cc(-c2[nH]c3ccc(-c4nnc(C5CCN(C(=O)CN(C)C)CC5)[nH]4)cc3c2C(C)C)ccn1 [Example 186, 2-(dimethylamino)-1-(4-(5-(3-isopropyl-2-(2-methylpyridin-4-yl)-1H-indol-5-yl)-4H-1,2,4-triazol-3-yl)piperidin-1-yl)ethan-1-one] | 1500 | 16 | 28 |
| Cc1cc(-c2[nH]c3ccc(-c4ccc(N5CCNCC5)nc4)cc3c2C(C)C)cc(C)n1 [Example 257, 2-(2,6-dimethylpyridin-4-yl)-3-isopropyl-5-(6-(piperazin-1-yl)pyridin-3-yl)-1H-indole] | 151 | 1.7 | 1.7 |
| Cc1cc(-c2[nH]c3ccc(-c4nnc(C5CN6CCC5CC6)o4)cc3c2C(C)C)cc(C)n1 (stereo not drawn) [Example 296, 2-(2-(2,6-dimethylpyridin-4-yl)-3-isopropyl-1H-indol-5-yl)-5-(quinuclidin-3-yl)-1,3,4-oxadiazole] | 310 | 1.7 | 4.8 |
| Cc1cc(-c2[nH]c3ccc(-c4nc5c(s4)CN(C(=O)C4CC(=O)N(C)C4)CC5)cc3c2C(C)C)cc(C)n1 (stereo not drawn) [Example 364, 4-(2-(2-(2,6-dimethylpyridin-4-yl)-3-isopropyl-1H-indol-5-yl)-4,5,6,7-tetrahydrothiazolo[5,4-c]pyridine-5-carbonyl)-1-methylpyrrolidin-2-one] | > 50000 | 11 | 20 |
| CC(=O)Nc1ccc(-c2ccc3[nH]c(-c4ccnc(C)c4)c(C(C)C)c3c2)cn1 [Example 256, N-(5-(3-isopropyl-2-(2-methylpyridin-4-yl)-1H-indol-5-yl)pyridin-2-yl)acetamide] | > 50000 | 15 | 99 |
| CNCCN1CCn2nc(-c3ccc4[nH]c(-c5ccnc6[nH]ncc56)c(C(C)C)c4c3)nc2C1 [Example 217, 2-(2-(3-isopropyl-2-(1H-pyrazolo[3,4-b]pyridin-4-yl)-1H-indol-5-yl)-5,6-dihydro-[1,2,4]triazolo[1,5-a]pyrazin-7(8H)-yl)-N-methylethan-1-amine] | > 50000 | 41 | 417 |
| COc1ccc(-c2[nH]c3ccc(-c4ccc(C5=CCN(C6CCN(CC(C)C)CC6)CC5)cc4)cc3c2C)cc1OC [Example 375, 2-(3,4-dimethoxyphenyl)-5-(4-(1-(1-isobutylpiperidin-4-yl)-1,2,3,6-tetrahydropyridin-4-yl)phenyl)-3-methyl-1H-indole] | 291 | 12400 | > 50000 |

The next lines start with the values.

| IC50 (human TLR9) [nM] | IC50 (human TLR8) [nM] | IC50 (human TLR7) [nM] | Compound |
| --- | --- | --- | --- |
| > 50000 | 301 | 4160 | COCCNCc1nnc(-c2ccc3[nH]c(-c4ccc(OC)c(OC)c4)c(C(C)C)c3c2)o1 [Example 109, N-((5-(2-(3,4-dimethoxyphenyl)-3-isopropyl-1H-indol-5-yl)-1,3,4-oxadiazol-2-yl)methyl)-2-methoxyethan-1-amine] |
| > 50000 | 173 | 749 | CCc1c(-c2ccc(OC)c(OC)c2)[nH]c2ccc(-c3nnc(C(N)=O)o3)cc12 [Example 41, 5-(2-(3,4-dimethoxyphenyl)-3-ethyl-1H-indol-5-yl)-1,3,4-oxadiazole-2-carboxamide] |
| 35000 | 6.9 | 25 | Cc1cc(-c2[nH]c3ccc(-c4nn5c(c4C(N)=O)CNCC5)cc3c2C(C)C)ccn1 [Example 216, 2-(3-isopropyl-2-(2-methylpyridin-4-yl)-1H-indol-5-yl)-4,5,6,7-tetrahydropyrazolo[1,5-a]pyrazine-3-carboxamide] |
| 687 | 0.9 | 16 | Cc1cc(-c2[nH]c3ccc(-c4nnc([C@H]5CCCNC5)o4)cc3c2C(C)C)ccn1 [Example 69, (S)-2-(3-isopropyl-2-(2-methylpyridin-4-yl)-1H-indol-5-yl)-5-(piperidin-3-yl)-1,3,4-oxadiazole] |
| 921 | 43 | 175 | Cc1cc(-c2[nH]c3ccc(-c4nc(C5CCNCC5)c[nH]4)cc3c2C(C)C)ccn1 [Example 189, 3-isopropyl-2-(2-methylpyridin-4-yl)-5-(4-(piperidin-4-yl)-1H-imidazol-2-yl)-1H-indole] |
| > 50000 | 72 | 576 | Cc1cc(-c2[nH]c3ccc(-c4nnc(CC(F)(F)F)o4)cc3c2C(C)C)ccn1 [Example 75, 2-(3-isopropyl-2-(2-methylpyridin-4-yl)-1H-indol-5-yl)-5-(2,2,2-trifluoroethyl)-1,3,4-oxadiazole] |
| > 50000 | 519 | 2310 | COc1ccc(-c2[nH]c3ccc(-c4cccc(-c5cccc(CN6CCOCC6)c5)c4)cc3c2C(C)C)cc1OC [Example 396, 4-((3′-(2-(3,4-dimethoxyphenyl)-3-isopropyl-1H-indol-5-yl)-[1,1′-biphenyl]-3-yl)methyl)morpholine] |
| > 50000 | 17 | 258 | Cc1cc(-c2[nH]c3ccc(-c4nnc(Cc5c[nH]cn5)o4)cc3c2C(C)C)ccn1 [Example 144, 2-((1H-imidazol-4-yl)methyl)-5-(3-isopropyl-2-(2-methylpyridin-4-yl)-1H-indol-5-yl)-1,3,4-oxadiazole] |
| 936 | 6.2 | 55 | COc1ccc(-c2[nH]c3ccc(-c4nnc(C(=O)NC5CCN(C(C)C)CC5)o4)cc3c2C(C)C)cc1OC [Example 59, 5-(2-(3,4-dimethoxyphenyl)-3-isopropyl-1H-indol-5-yl)-N-(1-isopropylpiperidin-4-yl)-1,3,4-oxadiazole-2-carboxamide] |
| 1690 | 19 | 121 | CCc1c(-c2ccc(OC)c(OC)c2)[nH]c2ccc(-c3noc(C4CCNC4)n3)cc12 (stereo not drawn) [Example 450, 3-(2-(3,4-dimethoxyphenyl)-3-ethyl-1H-indol-5-yl)-5-(pyrrolidin-3-yl)-1,2,4-oxadiazole] |
| 2310 | 38 | 53 | Cc1cc(-c2[nH]c3ccc(-c4nnc(C5CCNCC5)o4)cc3c2C(C)C)ccn1 [Example 66, 2-(3-isopropyl-2-(2-methylpyridin-4-yl)-1H-indol-5-yl)-5-(piperidin-4-yl)-1,3,4-oxadiazole] |
| 1070 | 7.7 | 60 | COc1ccc(-c2[nH]c3ccc(-c4nnc(C[C@@H]5CCCN5)o4)cc3c2C(C)C)cc1OC [Example 51, (S)-2-(2-(3,4-dimethoxyphenyl)-3-isopropyl-1H-indol-5-yl)-5-(pyrrolidin-2-ylmethyl)-1,3,4-oxadiazole] |
| > 50000 | 37 | 945 | CC(C)c1c(-c2ccnc3[nH]ncc23)[nH]c2ccc(-c3nnc(CNC4CC4)o3)cc12 [Example 148, N-((5-(3-isopropyl-2-(1H-pyrazolo[3,4-b]pyridin-4-yl)-1H-indol-5-yl)-1,3,4-oxadiazol-2-yl)methyl)cyclopropanamine] |
| > 50000 | 38 | 440 | COc1ccc(-c2[nH]c3ccc(-c4ccc(CN5CCOCC5)cc4)cc3c2C(C)C)cc1OC [Example 413, 4-(4-(2-(3,4-dimethoxyphenyl)-3-isopropyl-1H-indol-5-yl)benzyl)morpholine] |
| 14400 | 99 | 106 | COc1ccc(-c2[nH]c3ccc(-c4nnc(CN5CCCN(C(C)=O)CC5)o4)cc3c2C(C)C)cc1OC [Example 119, 1-(4-((5-(2-(3,4-dimethoxyphenyl)-3-isopropyl-1H-indol-5-yl)-1,3,4-oxadiazol-2-yl)methyl)-1,4-diazepan-1-yl)ethan-1-one] |
| > 50000 | 50 | 7280 | CC(C)c1c(-c2ccnc3[nH]ncc23)[nH]c2ccc(-c3nnc(CNCC(C)(C)C)o3)cc12 [Example 149, N-((5-(3-isopropyl-2-(1H-pyrazolo[3,4-b]pyridin-4-yl)-1H-indol-5-yl)-1,3,4-oxadiazol-2-yl)methyl)-2,2-dimethylpropan-1-amine] |

Source: US11420958B2, “Aryl and heteroaryl substituted indole compounds” (BRISTOL-MYERS SQUIBB COMPANY, priority 2017, dated 2022)
